Values joined by “and” are separate entries in the source; they are usually repeats but may differ in a detail not shown here. Identical values can stand only once. “Also recorded” adds a separate entry of the source. Like-named read-outs stand apart in the source and are kept apart here.
Tests used:
[1] = biological target: T1, neuronal 5-HT2A receptor (5-HT2AR) (Mus musculus, UniProt P35363); test: Drug-induced Head Twitch Response (HTR) in mice; format: in vivo, C57BL/6-Elite mice; details: 1 mg/kg i.p., 15-to-30-minute window post-drug, relative to vehicle-treated control mice
T1 construct: HTR was measured in mice treated with a control and test compounds; tissue Charles River; host or cells: live C57BL/6-Elite mice (neuronal receptor)

[2] = biological target: T2, 5-HT1A receptor (Homo sapiens, UniProt P08908); test: cAMP-Glo assay of 5-HT1A receptor modulation, +5-HT1A (CHO-K1/5-HT1A/Ga15) vs -5-HT1A (CHO-K1/Ga15) cells; format: cell-based; parameters: dose or concentration left out as unconfirmed; details: +5-HT1A vs -5-HT1A cell cultures stimulated with forskolin, increasing ligand concentrations
T2 construct: host or cells: CHO-K1 (co-expressing Ga15)
T2 sequence (P08908 1-422): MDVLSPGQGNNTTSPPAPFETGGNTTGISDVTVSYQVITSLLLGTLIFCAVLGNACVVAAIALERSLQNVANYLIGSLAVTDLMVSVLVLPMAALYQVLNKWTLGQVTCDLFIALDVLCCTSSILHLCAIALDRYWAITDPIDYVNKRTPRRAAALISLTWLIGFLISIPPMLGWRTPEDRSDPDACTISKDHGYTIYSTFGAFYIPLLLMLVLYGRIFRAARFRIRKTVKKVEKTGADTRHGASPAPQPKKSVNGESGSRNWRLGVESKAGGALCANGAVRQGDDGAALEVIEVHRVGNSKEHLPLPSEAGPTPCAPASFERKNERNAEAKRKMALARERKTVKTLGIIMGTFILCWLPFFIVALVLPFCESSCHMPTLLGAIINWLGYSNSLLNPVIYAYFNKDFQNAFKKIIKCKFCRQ

[3] = biological target: GABAA (Homo sapiens, UniProt P14867+P18507+P47870); format: cell-based; details: ion channel
[4] = Mouse pharmacokinetic (PK) study, parent compound and psilocin metabolite in plasma; format: in vivo, C57Bl/6 mice
Description: Briefly, the procedure was as follows. […] 19, 2022.

[5] = mouse, prodrug 1 mg/kg i.v., 8 h, individual animals
[6] = mouse, prodrug 1 mg/kg oral, 8 h, individual animals
[7] = mouse, prodrug 1 mg/kg oral, 24 h, individual animals
[8] = mouse, prodrug 3 mg/kg oral, 24 h, individual animals
[9] = mouse, prodrug 10 mg/kg oral, 24 h, individual animals

T1 sequence (P35363 whole entry): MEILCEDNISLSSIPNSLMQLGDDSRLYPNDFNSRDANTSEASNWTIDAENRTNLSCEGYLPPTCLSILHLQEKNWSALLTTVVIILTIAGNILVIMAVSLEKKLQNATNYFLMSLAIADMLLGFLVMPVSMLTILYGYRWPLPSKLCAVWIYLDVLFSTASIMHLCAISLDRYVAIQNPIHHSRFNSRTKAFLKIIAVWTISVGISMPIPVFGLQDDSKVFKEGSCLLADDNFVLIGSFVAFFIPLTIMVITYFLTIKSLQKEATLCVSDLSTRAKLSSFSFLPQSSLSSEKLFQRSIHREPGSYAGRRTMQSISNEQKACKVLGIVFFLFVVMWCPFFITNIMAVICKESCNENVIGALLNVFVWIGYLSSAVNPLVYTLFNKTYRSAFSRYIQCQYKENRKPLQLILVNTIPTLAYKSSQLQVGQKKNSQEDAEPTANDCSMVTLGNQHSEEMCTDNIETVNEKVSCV
Sequence of GABAA (P14867 28-456): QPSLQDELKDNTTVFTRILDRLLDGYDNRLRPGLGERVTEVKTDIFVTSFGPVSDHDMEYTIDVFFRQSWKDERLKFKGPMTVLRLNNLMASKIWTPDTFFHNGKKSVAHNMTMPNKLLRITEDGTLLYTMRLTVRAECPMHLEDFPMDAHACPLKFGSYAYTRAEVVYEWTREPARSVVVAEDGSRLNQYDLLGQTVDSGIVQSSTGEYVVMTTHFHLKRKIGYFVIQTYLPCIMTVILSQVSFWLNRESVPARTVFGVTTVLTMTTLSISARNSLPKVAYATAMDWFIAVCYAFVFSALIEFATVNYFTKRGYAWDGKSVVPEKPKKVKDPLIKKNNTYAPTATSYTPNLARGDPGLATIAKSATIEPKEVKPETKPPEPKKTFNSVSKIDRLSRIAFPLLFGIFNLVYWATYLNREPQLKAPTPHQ
Sequence of GABAA (P47870 26-512): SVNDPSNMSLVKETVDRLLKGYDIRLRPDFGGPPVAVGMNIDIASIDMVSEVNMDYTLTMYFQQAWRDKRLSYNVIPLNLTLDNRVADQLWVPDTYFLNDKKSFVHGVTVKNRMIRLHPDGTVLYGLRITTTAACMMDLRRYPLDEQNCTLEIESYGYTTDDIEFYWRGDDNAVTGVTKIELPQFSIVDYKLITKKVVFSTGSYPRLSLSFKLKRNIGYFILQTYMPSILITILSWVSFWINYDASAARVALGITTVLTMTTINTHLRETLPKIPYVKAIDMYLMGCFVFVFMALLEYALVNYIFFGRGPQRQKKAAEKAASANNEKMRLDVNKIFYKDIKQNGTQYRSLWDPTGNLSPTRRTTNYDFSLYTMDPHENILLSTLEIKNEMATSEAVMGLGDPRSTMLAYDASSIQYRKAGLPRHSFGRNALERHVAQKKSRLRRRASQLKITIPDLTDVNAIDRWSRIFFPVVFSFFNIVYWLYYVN
Sequence of GABAA (P18507 40-475): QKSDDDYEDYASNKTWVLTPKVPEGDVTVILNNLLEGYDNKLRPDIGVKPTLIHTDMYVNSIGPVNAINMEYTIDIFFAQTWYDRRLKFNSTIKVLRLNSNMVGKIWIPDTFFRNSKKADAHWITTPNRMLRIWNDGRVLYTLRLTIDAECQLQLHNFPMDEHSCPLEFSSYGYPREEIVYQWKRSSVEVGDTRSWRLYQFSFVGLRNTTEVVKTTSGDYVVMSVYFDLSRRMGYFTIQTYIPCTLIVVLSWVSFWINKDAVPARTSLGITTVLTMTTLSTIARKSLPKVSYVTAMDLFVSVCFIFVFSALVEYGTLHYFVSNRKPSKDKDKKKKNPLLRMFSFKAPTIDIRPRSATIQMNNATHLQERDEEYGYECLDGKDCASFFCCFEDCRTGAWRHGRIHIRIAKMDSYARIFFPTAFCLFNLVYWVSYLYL

Structure (SMILES) | Incidences of Head Twitch Response (HTR) [1] | 5-HT1A receptor modulation (reduction of cAMP levels) [2] | Plasma concentration of psilocin [4, 5] | Plasma concentration of psilocin [4, 6] | Plasma concentration of psilocin [4, 7] | Plasma concentration of psilocin [4, 8] | Plasma concentration of psilocin [4, 9] | further results
COCCOCCOCC(=O)Oc1cccc2[nH]cc(CCN(C)C)c12 [C(III)] | Elevated incidences of HTR | significant receptor modulation | – | – | – | – | – | –
COc1ccc(C(=O)Oc2cccc3[nH]cc(CCN(C)C)c23)cc1 [C(V)] | Elevated incidences of HTR | mild receptor modulation at higher ligand concentrations | BLQ (BLQ denotes below the lower limit of quantitation (0.2 ng/ml).) | BLQ (BLQ denotes below the lower limit of quantitation (0.2 ng/ml).) | No Peak; also recorded: BLQ (BLQ denotes below the lower limit of quantitation (0.2 ng/ml).) | No Peak; also recorded: BLQ (BLQ denotes below the lower limit of quantitation (0.2 ng/ml).) | BLQ (BLQ denotes below the lower limit of quantitation (0.2 ng/ml).); also recorded: No Peak | IC50 ([3]; blocker (BL) mode): > 100 µM; EC50 ([3]; opener (OP) mode): > 100 µM; Detectability of administered compound in plasma, i.v. administered animals ([4]; mouse, 1 mg/kg i.v.): only detectable in i.v. administered animals; Detectability of administered compound in plasma, orally administered animals ([4]; mouse, oral, any dose (1, 3, 10 mg/kg)): not detectable in orally administered animals at any dose; Plasma concentration of administered (parent) compound ([4]; mouse, 1 mg/kg i.v., 5 min, individual animals, 1 mg/kg): 6.53 ng/mL and 53.8 ng/mL and 13.5 ng/mL; Plasma concentration of administered (parent) compound ([4]; mouse, 1 mg/kg i.v., 5 min, mean ± SD): 24.6 ± 25.5 ng/mL; Plasma concentration of administered (parent) compound ([4]; mouse, 1 mg/kg i.v., 0.25 h, individual animals, 1 mg/kg): BLQ (BLQ denotes below the lower limit of quantitation (0.5 ng/mL).); Plasma concentration of administered (parent) compound ([4]; mouse, 1 mg/kg i.v., 0.25 h, mean ± SD): 0.834 (n = 1) ng/mL; Plasma concentration of administered (parent) compound ([4]; mouse, 1 mg/kg i.v., 0.5 h, individual animals, 1 mg/kg): BLQ (BLQ denotes below the lower limit of quantitation (0.5 ng/mL).); also recorded: No Peak; Plasma concentration of administered (parent) compound ([4]; mouse, 1 mg/kg i.v., 1 h, individual animals): No Peak; Plasma concentration of administered (parent) compound ([4]; mouse, 1 mg/kg i.v., 2 h, individual animals): No Peak; Plasma concentration of administered (parent) compound ([4]; mouse, 1 mg/kg i.v., 4 h, individual animals): No Peak; Plasma concentration of administered (parent) compound ([4]; mouse, 1 mg/kg i.v., 6 h, individual animals): No Peak; Plasma concentration of administered (parent) compound ([4]; mouse, 1 mg/kg i.v., 8 h, individual animals): No Peak; Cmax of administered (parent) compound ([4]; mouse, 1 mg/kg i.v., individual animals, 1 mg/kg): 6.53 ng/mL and 53.8 ng/mL and 13.5 ng/mL; Cmax of administered (parent) compound ([4]; mouse, 1 mg/kg i.v., mean ± SD): 24.6 ± 25.5 ng/mL; Stability in plasma ([4]; plasma, LC-MS bioanalysis of the mouse PK study): unstable in plasma; also recorded: ^aA freshly spiked calibration curve was used for quantification C(V) is not stable in plasma; concentrations are not considered accurate; also recorded: ^aDue to C(V) instability in plasma, the PK parameter estimates are not considered accurate
CN(C)CCc1c[nH]c2cccc(OC(=O)c3c(F)c(F)c(F)c(F)c3F)c12 [C(VI)] | Elevated incidences of HTR | no receptor modulation at higher ligand concentrations | BLQ (BLQ denotes below the lower limit of quantitation (0.2 ng/ml).) | BLQ (BLQ denotes below the lower limit of quantitation (0.2 ng/ml).) | BLQ (BLQ denotes below the lower limit of quantitation (0.2 ng/ml).); also recorded: No Peak | BLQ (BLQ denotes below the lower limit of quantitation (0.2 ng/ml).); also recorded: No Peak | BLQ (BLQ denotes below the lower limit of quantitation (0.2 ng/ml).) | IC50 ([3]; blocker (BL)): > 100 µM; EC50 ([3]; opener (OP)): > 100 µM; Detectability of administered compound in plasma, any animals at any dose ([4]; mouse, i.v. and oral doses): not detectable in any animals at any dose
CN(C)CCc1c[nH]c2cccc(OC(=O)c3cccc(C(=O)Oc4cccc5[nH]cc(CCN(C)C)c45)c3)c12 [C(VII)] | Elevated incidences of HTR | no significant receptor modulation | – | – | – | – | – | –
COC(=O)c1cccc(C(=O)Oc2cccc3[nH]cc(CCN(C)C)c23)c1 [C(XLIII)] | – | receptor modulation at higher ligand concentrations | – | – | – | – | – | –
NCCc1c[nH]c2ccc(O)cc12 [serotonin, reference compound] | – | reduction in cAMP levels | – | – | – | – | – | –

Reference: patent US12065404B2, “C4-carboxylic acid-substituted tryptamine derivatives and methods of using” (priority 2022, dated 2024)
